What was measured:
AKT = tested on: AKT; parameters: method as in Yang et al., 2018; details: down-regulates transcriptional activity of FoxO1; ref Yang et al., 2018; cited from earlier work
in vivo = assay type: in vivo, Sprague-Dawley rats; details: male, Sprague-Dawley, rat, in vivo, iv
Description: The animal experiments were conducted in line with the Guide for the Care and Use of Laboratory Animals (published by the USA National Institutes of Health, NIH Publication no. 85-23, revised 1996), which were approved by the Animal Care and Use Committee of the College of Animal Science (College of Bee Science), Fujian Agriculture and Forestry University (Approval Number: […]2019004). […] All rats were acclimated to the facilities and environment for 7 days before the experiments. […] The gradient elution was carried out by the mobile phase water with 0.1% formic acid (A) and methanol (B). […] The column temperature and flow rate were at 35 °C and 0.5 ml/min, resepectively. 5 μl sample solution was injected for the HPLC-MS analysis. The electrospray ionization (ESI) source conditions were as follows: block heating temperature was kept at 400 °C; desolvation line temperature was set at 250 °C; dry gas (nitrogen) flow rate was kept at 15 L/min; and auxiliary gas (nitrogen) flow rate was 3 L/min. […] The plasma samples were separated by centrifugation, followed by storing at -20 °C before analysis. […] A DAS 3.0 software (Chinese Pharmacologic Society, Beijing, China) was used to calculate the noncompartmental PK parameters. All the results were presented as mean ± SD, and statistics analysis was done with a single-tailed Student's t test in the work.

[1] = Stability of the compounds in rat plasma (LC-MS validation); assay type: in vitro ADME
From the text: According to the “Guidelines for non-clinical pharmacokinetics of drugs” issued by Centre for Drug Evaluation, National Medical Products Administration, China ([Guidelines for non-clinical pharmacokinetics of drugs, 2014]), the LC-MS method was validated by linearity, limits of detection (LOD), limits of quantification (LOQ), precision, accuracy, extraction recovery, matrix effect and stability of the 6 compounds in rat plasma. In brief, blank rat plasma was obtained from the other six rats. The standard mixture solution containing the 6 compounds (with the concentration of 1 mg/ml for each) was diluted with […] to prepare a series of working solution containing the 6 compounds (concentration level: 20, 50, 100, 250, 500 ng/ml and 1, 2.5, 5, 10, 25, 50, 100, 125 150, 200 μg/ml) and IS (2.5μg/ml). For calibration curve, 10 μl of the series of working solution containing the IS (2.5μg/ml) was added into 100 μl of blank plasma. Finally, 15 data points (2, 5, 10, 25, 50, 100, 250, 500 ng/ml and 1, 2.5, 5, 10, 12.5 15, 20 μg/ml) were used in the calibration curve linearity. Calibration curves were plotted by weighted linear regression of the peak area ratio of analyte to the IS against the related nominal concentration of the analyte. LOD and LOQ were defined as the detectable concentration at which the ratio of signal to noise was about 3 and 10, respectively ([Huang et al., 2019]). […] The extraction recovery and matrix effect were also assessed at the above-mentioned three concentration levels for the 6 ingredients in the spiked plasma samples ([Huang et al., 2019]). Stability was examined under the condition of setting un-treated plasma samples at ambient temperature for 6 h, and extracted plasma samples in auto-sampler for 10 h, as well as setting plasma samples for three freeze-thaw cycles and at −80°C for 15 days ([Guidelines for non-clinical pharmacokinetics of drugs, 2014]).

Question: With `C=C[C@@H]1C2=CCOC(=O)C2=CO[C@H]1O[C@@H]1O[C@H](CO)[C@@H](O)[C@H](O)[C@H]1O` [GPS, gentiopicroside] as the molecule, how does the “effect on phosphorylation of AKT” value (AKT) read?
Answer: activate the phosphorylation of AKT

Question: And the “AUC0-∞” value (in vivo)?
Answer: 118.37 ± 6.75 ng·h/mL

Question: What about the AUC(0-t) (in vivo) of the same molecule?
Answer: 108.95 ± 5.92 ng·h/mL

Question: And the Cl (in vivo)?
Answer: 3.83 ± 0.23 L/h

Question: And the MRT0-t (in vivo)?
Answer: 15.6 ± 0.6 min

Question: And the “MRT0-∞” value (in vivo)?
Answer: 21 ± 2.4 min

Question: What about the Vd (in vivo) of the same molecule?
Answer: 1.45 ± 0.16 L

Question: What about the “t 1/2” value (in vivo) of the same molecule?
Answer: 15.6 ± 2.4 min

Question: What about the AUC(0-t) (in vivo; AUC0-t) of the same molecule?
Answer: 63.6 ± 2.53 ng·h/mL

Question: What about the AUC(0-inf) (in vivo; AUC0-∞) of the same molecule?
Answer: 68.2 ± 1.88 ng·h/mL

Question: And the clearance (in vivo; Cl)?
Answer: 55.3 mL/min

Question: And the MRT last (in vivo; MRT0-t)?
Answer: 21.6 ± 0.6 min

Question: And the MRT inf (in vivo; MRT0-∞)?
Answer: 25.2 ± 3 min

Question: What about the Vd (in vivo; Vd) of the same molecule?
Answer: 1.08 ± 0.26 L

Question: What about the half-life (in vivo; t 1/2) of the same molecule?
Answer: 13.8 ± 3.6 min

Question: And the “Stability, RE” value ([1]; extracted plasma samples, 10h in auto-sampler vials, high spiked level (HQC, 8000-16000 ng/mL))?
Answer: -9.29%

Question: What about the “Stability, RE” value ([1]; extracted plasma samples, 10h in auto-sampler vials, low spiked level (LQC, 5-30 ng/mL)) of the same molecule?
Answer: 10.09%

Question: And the “Stability, RE” value ([1]; extracted plasma samples, 10h in auto-sampler vials, middle spiked level (MQC, 400-1600 ng/mL))?
Answer: 2.52%

Question: And the “Stability, RE” value ([1]; rat plasma, 6h at room temperature, high spiked level (HQC, 8000-16000 ng/mL))?
Answer: -13.56%

Question: And the “Stability, RE” value ([1]; rat plasma, 6h at room temperature, low spiked level (LQC, 5-30 ng/mL))?
Answer: -10.12%

Question: What about the “Stability, RE” value ([1]; rat plasma, 6h at room temperature, middle spiked level (MQC, 400-1600 ng/mL)) of the same molecule?
Answer: -6.72%

Question: And the “Stability, RE” value ([1]; rat plasma, freeze-thaw stability (three cycles), high spiked level (HQC, 8000-16000 ng/mL))?
Answer: -2.10%

Question: And the “Stability, RE” value ([1]; rat plasma, freeze-thaw stability (three cycles), low spiked level (LQC, 5-30 ng/mL))?
Answer: 14.78%

Question: What about the “Stability, RE” value ([1]; rat plasma, freeze-thaw stability (three cycles), middle spiked level (MQC, 400-1600 ng/mL)) of the same molecule?
Answer: 1.22%

Question: And the “Stability, RE” value ([1]; rat plasma, long-term stability (-80℃,15 days), high spiked level (HQC, 8000-16000 ng/mL))?
Answer: 9.68%

Question: What about the “Stability, RE” value ([1]; rat plasma, long-term stability (-80℃,15 days), low spiked level (LQC, 5-30 ng/mL)) of the same molecule?
Answer: 12.72%

Question: And the “Stability, RE” value ([1]; rat plasma, long-term stability (-80℃,15 days), middle spiked level (MQC, 400-1600 ng/mL))?
Answer: 4.29%

— article PMC7457137, “An Integrated Pharmacokinetic Study of an Acanthopanax senticosus Extract Preparation by Combination of Virtual Screening, Systems Pharmacology, and Multi-Component Pharmacokinetics in Rats” (Frontiers in Pharmacology, 2020)
